Two compounds from publication PMC9437101, “Curcumin-based-fluorescent probes targeting ALDH1A3 as a promising tool for glioblastoma precision surgery and early diagnosis” (Communications Biology, 2022) can be followed below.

Structures are written as SMILES.

A short description of data set [1]: Absorbance, emission and excitation wavelengths evaluation. The format is physicochemical. The settings on record: 10 µM in SEC buffer. The procedure: Fluorescent compounds were analyzed on a Tecan Spark to evaluate the correct parameters to further set the biochemical characterizations. The absorbance was evaluated in a range from 300 to 700 nm, with a wavelength step size of 5 nm. Based on the absorbance values, we settled a 3D fluorescence emission scan to evaluate the excitation and emission peaks. The analysis was conducted using the same buffer mix, as already described. The excitation range was set between 390 and 450 nm for both molecules, with a step size of 5 nm. The emission range was set between 485 and 700 nm for both molecules, with a step size of 5 nm. All these characterizations were performed on a Tecan Spark using Greiner Bio-One 96-UV-Transparent Microplates and the tests were carried out using a total volume of 100 μl for each well.

The target of data set [2] is T1, ALDH1A1 (Homo sapiens, UniProt P00352).
T1 construct: E. coli BL21 (DE3) were transformed with the full-length expression vector of each isoform; His-tag; made in house; host or cells: E. coli BL21 (DE3)
T1 sequence (P00352 1-501): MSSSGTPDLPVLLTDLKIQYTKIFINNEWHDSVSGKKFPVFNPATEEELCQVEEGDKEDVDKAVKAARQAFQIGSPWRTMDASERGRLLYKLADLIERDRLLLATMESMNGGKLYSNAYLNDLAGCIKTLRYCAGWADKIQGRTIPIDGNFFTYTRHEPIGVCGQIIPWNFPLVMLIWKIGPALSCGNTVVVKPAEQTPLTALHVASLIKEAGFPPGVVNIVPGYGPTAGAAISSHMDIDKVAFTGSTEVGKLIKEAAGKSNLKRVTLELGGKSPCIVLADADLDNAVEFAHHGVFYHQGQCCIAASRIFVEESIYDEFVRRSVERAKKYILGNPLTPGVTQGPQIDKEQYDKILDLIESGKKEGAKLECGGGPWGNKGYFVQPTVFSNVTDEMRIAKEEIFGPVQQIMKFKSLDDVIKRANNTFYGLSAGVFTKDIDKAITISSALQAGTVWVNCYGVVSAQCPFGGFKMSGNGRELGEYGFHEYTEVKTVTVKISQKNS
In words: Kd evaluation by fluorescence emission assay. Format: binding. The settings on record: probe 10 μM, ALDH1A1 100 to 1.1719 μM. The procedure: (§1) To evaluate the Kd constant between the two probes and the isoenzymes ALDH1A1, ALDH1A2 and ALDH1A3A we performed a fluorescence emission assay. We used a Tecan Spark with Greiner Bio-One 96-UV-Transparent Microplates. A single reaction was performed in a total volume of 100 μl per well containing 20 mM Tris HCl pH 8.0, 1 mM β-mercaptoethanol, 150 mM KCl, 500 μM NAD^+ and 10 μM fluorescent probe with a 5% DMSO final concentration, in the presence of different ALDH1As concentrations, from 100 μM to 1.1719 μM. Each reaction mix was preincubated for 10 min at 25 °C before the analysis. The obtained raw data were analyzed using GraphPad to calculate Kd values.

Data set [3] has as its target T2, ALDH1A2 (Homo sapiens, UniProt O94788).
T2 construct: E. coli BL21 (DE3) were transformed with the full-length expression vector of each isoform; His-tag; made in house; host or cells: E. coli BL21 (DE3)
T2 sequence (O94788 1-518): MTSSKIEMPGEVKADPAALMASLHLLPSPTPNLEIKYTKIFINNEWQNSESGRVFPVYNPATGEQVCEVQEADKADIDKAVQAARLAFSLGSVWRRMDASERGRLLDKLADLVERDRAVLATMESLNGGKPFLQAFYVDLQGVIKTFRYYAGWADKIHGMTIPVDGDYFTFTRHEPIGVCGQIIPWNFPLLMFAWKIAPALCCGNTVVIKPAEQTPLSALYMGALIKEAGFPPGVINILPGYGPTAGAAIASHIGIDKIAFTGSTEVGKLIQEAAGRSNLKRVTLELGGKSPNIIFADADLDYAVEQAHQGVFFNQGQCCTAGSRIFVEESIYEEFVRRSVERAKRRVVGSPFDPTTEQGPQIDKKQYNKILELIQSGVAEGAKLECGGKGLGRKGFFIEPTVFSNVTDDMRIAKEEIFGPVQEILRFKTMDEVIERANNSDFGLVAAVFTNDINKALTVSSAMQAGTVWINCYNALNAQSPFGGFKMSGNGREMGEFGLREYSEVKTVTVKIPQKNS
Description: Kd evaluation by fluorescence emission assay. The format is binding. Conditions: probe 10 μM, ALDH1A2 100 to 1.1719 μM. The procedure: as §1

Data set [4] has as its target T3, ALDH1A3 (Homo sapiens, UniProt P47895).
T3 construct: E. coli BL21 (DE3) were transformed with the full-length expression vector of each isoform; His-tag; made in house; host or cells: E. coli BL21 (DE3)
T3 sequence (P47895 1-512): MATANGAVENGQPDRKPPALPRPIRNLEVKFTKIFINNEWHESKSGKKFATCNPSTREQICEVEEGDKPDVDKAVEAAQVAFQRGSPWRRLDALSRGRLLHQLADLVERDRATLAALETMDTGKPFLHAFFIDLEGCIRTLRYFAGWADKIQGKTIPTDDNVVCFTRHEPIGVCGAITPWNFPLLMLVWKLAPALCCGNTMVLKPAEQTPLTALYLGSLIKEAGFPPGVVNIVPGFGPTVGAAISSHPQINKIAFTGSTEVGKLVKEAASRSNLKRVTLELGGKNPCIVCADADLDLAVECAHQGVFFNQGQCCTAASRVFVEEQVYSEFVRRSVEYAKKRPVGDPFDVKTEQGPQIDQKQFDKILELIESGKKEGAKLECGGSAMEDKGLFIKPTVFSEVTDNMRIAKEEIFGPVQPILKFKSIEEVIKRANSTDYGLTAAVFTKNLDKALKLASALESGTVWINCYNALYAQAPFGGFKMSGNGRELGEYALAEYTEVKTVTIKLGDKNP
In words: Kd evaluation by fluorescence emission assay. Format: binding. Conditions: probe 10 μM, ALDH1A3 100 to 1.1719 μM. The procedure: as §1

One may read the Kd as the free concentration of one partner at which half of the binding sites on the other are occupied at equilibrium, for simple one-to-one binding. The low end stands for tighter binding, the high end for weaker binding. For the compound `COc1cc(/C=C/C(O)=C/C(=O)/C=C/c2ccc(OCc3cn(CCOc4ccc(C=O)cc4)nn3)c(OC)c2)ccc1O` [Probe 10], in data set [1], the Abs was 410 nm. In addition, the Em in data set [1] is given as 545 nm. The compound further had an Ex in data set [1] of 420 nm. The Kd in data set [2] was 31.1 µM; in data set [3] it was 36.9 µM; in data set [4] it was 38.2 µM.
In data set [1], `CCOC(=O)Cn1cc(COc2ccc(/C=C/C(=O)/C=C(O)/C=C/c3ccc(O)c(OC)c3)cc2OC)nn1` [Probe 11] displayed an Abs of 410 nm. Besides, in data set [1], the Em amounted to 545 nm. In data set [1], this compound showed an Ex of 420 nm. Further, the values for the Kd in data set [2], in data set [3] and in data set [4] were 42.4 µM, 125 µM and 84.3 µM, respectively.
